In ChEMBL document CHEMBL1138357 (J Med Chem, 2007):
Activity calls are given as the source filed them. The calls are words filed in the database; no cut-off is given here.

Legend:
[1] = target: Melatonin receptor type 1A (Homo sapiens, UniProt P48039); experiment: Displacement of 2-[125I]iodomelatonin from human cloned MT1 receptor expressed in […] NIH3T3 cells; assay type: cell-based
[2] = target: T1, Melatonin receptor type 1B (Homo sapiens, UniProt P49286); experiment: Displacement of 2-[125I]iodomelatonin from human cloned MT2 receptor expressed in […] NIH3T3 cells; assay type: cell-based
T1 sequence (P49286 whole entry): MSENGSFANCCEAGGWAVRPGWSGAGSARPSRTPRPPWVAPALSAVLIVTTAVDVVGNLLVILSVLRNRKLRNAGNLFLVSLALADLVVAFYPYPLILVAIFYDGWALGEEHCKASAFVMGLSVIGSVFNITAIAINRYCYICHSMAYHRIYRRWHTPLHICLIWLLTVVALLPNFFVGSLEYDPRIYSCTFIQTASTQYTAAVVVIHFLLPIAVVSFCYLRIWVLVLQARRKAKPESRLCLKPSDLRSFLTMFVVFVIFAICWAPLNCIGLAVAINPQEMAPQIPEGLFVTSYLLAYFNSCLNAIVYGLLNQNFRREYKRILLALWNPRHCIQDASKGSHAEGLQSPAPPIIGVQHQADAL

[3] = system: Rattus norvegicus; experiment: Sleep promoting activity in rat assessed as decrease in latency at 40 mg/kg, sc; assay type: functional, organism-based; parameters: dose 40 mg/kg
[4] = system: Rattus norvegicus; experiment: Sleep promoting activity in rat assessed as increase in duration of slow wave sleep at 40 mg/kg, sc; assay type: functional, organism-based; parameters: dose 40 mg/kg
[5] = system: Rattus norvegicus; experiment: Sleep promoting activity in rat assessed as increase of paradoxical sleep latency at 40 mg/kg, sc; assay type: functional, organism-based; parameters: dose 40 mg/kg
[6] = species on record: Rattus norvegicus; experiment: Anxiolytic activity in Sprague-Dawley rat by elevated plus maze test; assay type: functional, organism-based

Sequence of Melatonin receptor type 1A (P48039 whole entry): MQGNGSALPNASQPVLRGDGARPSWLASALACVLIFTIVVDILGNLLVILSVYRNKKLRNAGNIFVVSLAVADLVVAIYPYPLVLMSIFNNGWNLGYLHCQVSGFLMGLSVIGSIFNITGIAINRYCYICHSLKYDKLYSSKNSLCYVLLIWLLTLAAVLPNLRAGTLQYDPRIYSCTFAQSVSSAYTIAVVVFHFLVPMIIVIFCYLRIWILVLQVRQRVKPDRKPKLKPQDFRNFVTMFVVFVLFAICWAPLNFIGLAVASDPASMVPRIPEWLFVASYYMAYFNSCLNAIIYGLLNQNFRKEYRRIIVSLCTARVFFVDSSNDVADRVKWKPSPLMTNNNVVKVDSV

Ki [1] [nM]	Ki [2] [nM]	Compound	other results
7.24	12.6	COc1cccc(OCCNC(C)=O)c1	–
324	–	COc1cccc(N(CCNC(=O)C2CCC2)c2ccccc2)c1	–
–	–	COc1cccc(N(CCNC(C)=O)c2ccccc2)c1	Activity [3]: Active; Activity [4]: Active; Activity [5]: Active; Activity [6]: Active
–	7.41	COc1cccc(NCCNC(C)=O)c1	–
